Test results taken from patent US7166593B2, “Glucocorticoid receptor modulators” (Pfizer, Inc., priority 2000, dated 2007).

What was measured:
[1] = tested on: IL-1 (Interleukin-1) induced IL-8 (Interleukin-8) production in SW1353 human chondrosarcoma cells; experiment: glucocorticoid inhibition of IL-1 induced IL-8 production in human chondrosarcoma cells; format: cell-based; conditions: 20 ng/ml IL-1 beta, 24 hours after addition of IL-1, IL-8 ELISA, read-out: IC50, inhibitor of IL-8 expression
Description: (§1) This assay, the glucocorticoid inhibition of IL-1 (Interleukin-1) induced MMP-1 (Matrix Metalloproteinase-1) and IL-8 (Interleukin-8) production in human chondrosarcoma cells, is conducted as follows: SW1353 human chondrosarcoma cells (obtained from ATCC) from passage 12 through passage 19 are used in a 96 well format assay. Cells are plated at confluence into 96 well plates in DMEM (Dulbecco's Modified Eagle Medium) with 10% fetal bovine serum and incubated at 37° C., 5% CO2. After 24 hours, serum containing media is removed and replaced with 200 ul/well DMEM containing 1 mg/L insulin, 2 g/L lactalbumin hydrosylate, and 0.5 mg/L ascorbic acid and returned to incubation at 37° C., 5% CO2. […] IL-8 production is assessed using the Quantikine human IL-8 ELISA kit from R&D Systems (D8050) on samples diluted 60. fold in RD5P Calibrator Diluent, following the manufacturer's protocol. The percent of the average IL-1 control is determined for the average of each of the triplicate samples following subtraction of the average signal from untreated cells. IC50's are determined from log linear plots of the percent of control versus the concentration of inhibitor. […] MMP-1 production is assessed via the Bio-Trak MMP-1 ELISA kit from Amersham (RPN2610) on 100 ul of neat sample following the manufacturer's protocol. […]

[2] = tested on: IL-1 (Interleukin-1) induced MMP-1 (Matrix Metalloproteinase-1) production in SW1353 human chondrosarcoma cells; experiment: glucocorticoid inhibition of IL-1 induced MMP-1 production in human chondrosarcoma cells; format: cell-based; conditions: 20 ng/ml IL-1 beta, 72 hours after IL-1 addition, MMP-1 ELISA, read-out: IC50, inhibitor of MMP1 expression
Description: as §1

## C[C@@H]1C[C@H]2[C@@H]3CCC4=CC(=O)C=C[C@]4(C)[C@@]3(F)[C@@H](O)C[C@]2(C)[C@@]1(O)C(=O)CO [Dexamethasone, (11β,16α)-9-fluoro-11,17,21-trihydroxy-16-methylpregna-1,4-diene-3,20-dione]
[1]
  IC50: 5 nM
[2]
  IC50: 5 nM
